Results from ChEMBL document CHEMBL1201862, “PubChem BioAssay data set” (2004).
Calls of active or inactive are those of the source.

Legend:
[1] = molecular target: T1, Bcl-2-like protein 10 (Homo sapiens, UniProt Q9HD36); assay: displacers of TR3 peptide from Bcl-B, primary screen, selectivity assay for Bfl-1 inhibitor project, biochemical, fluorescence polarization, FITC-TR3 peptide (AID 748);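 also: fluorescence polarization from a fluorescein-labelled TR3 peptide binding purified Bcl-B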
T1 sequence (Q9HD36 whole entry): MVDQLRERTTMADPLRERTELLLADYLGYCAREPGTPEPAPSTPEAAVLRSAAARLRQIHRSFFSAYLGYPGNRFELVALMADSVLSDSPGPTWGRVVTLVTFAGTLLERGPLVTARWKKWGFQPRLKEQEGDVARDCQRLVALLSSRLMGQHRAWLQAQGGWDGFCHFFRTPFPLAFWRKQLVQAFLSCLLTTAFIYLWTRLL

[2] = cells
[3] = growth suppression of PTEN-null colon cells, dose response, cell-based, HCT116 PTEN knockout (AID 1047); format: functional;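 also: HCT116 colon tumor cells with PTEN knocked out; cells exposed to compound for 60 hours before readout; potency for loss of cell viability measured by luminescence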
[4] = inhibitors of intracellular T. cruzi replication, confirmation, NIH3T3 host cells, beta-gal luminescence (AID 2044); format: functional, cell-based;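 also: intracellular parasites grown in NIH/3T3 mouse fibroblasts as host cells; luminescent beta-galactosidase reporter signal from transgenic T. cruzi replicating inside host cells; inhibitors lower the luminescence signal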
[5] = cytotoxicity toward NIH3T3 fibroblasts, dose response, counter-screen, cell-based, ATP luminescence, mouse fibroblasts (AID 2010); format: functional;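 also: cells exposed to compound for about 90 hours before reading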
[6] = growth suppression of beta-catenin-knockout colon cells, dose response, cell-based, HCT116, human colon tumor (AID 1045); format: functional;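 also: HCT116 colon tumor cells with beta catenin knocked out; cells exposed to compound for 60 hours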
[7] = molecular target: Neurotensin receptor type 1 (Homo sapiens, UniProt P30989); format: functional;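 also: Image-based confirmatory dose-response assay measuring agonist activity at NTR1; NTR1-expressing U2OS osteosarcoma cells imaged for beta-arrestin GFP spot formation; agonist potency where compounds increase beta-arrestin recruitment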
[8] = Luminescence Cell-Based Dose Retest to Confirm Inhibitors of Cancer Stem Cells. [Related pubchem assays (depositor defined):AID2717, AID2721]; format: functional; conditions: Homo sapiens
[9] = HEp-2 cell cytotoxicity, dose response, cytotoxicity control for RSV inhibitor project, HTS (AID 2410); format: functional; conditions: human respiratory syncytial virus
[10] = system: Streptococcus sp. 'group A'; assay: growth inhibition of control SK(-) GAS strain, dose response, counter-screen for streptokinase expression inhibitor project, luminescence, kanamycin, BacTiterGlo, confirmation (AID 1900); format: functional, organism-based
[11] = system: Streptococcus; assay: Group A Streptococcus viability loss, dose response, counter-screen for streptokinase expression inhibitor project, luminescence, BacTiterGlo (AID 1915); format: functional, organism-based;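 also: potency for reduction of bacterial viability or growth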
[12] = microbe, parasite or virus in culture; format: functional; conditions: Mycobacterium tuberculosis
[13] = molecular target: NS3 (Hepatitis C virus, UniProt A3EZJ3); assay: PubChem AID 2173; parameters: species or system Hepacivirus hominis
[14] = molecular target: T2, Bcl-2-related protein A1 (Mus musculus, UniProt Q07440); format: functional;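 also: confirmatory dose–response counterscreen on Bfl-1, used to check hits from a UBC13 polyubiquitin inhibitor campaign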
T2 sequence (Q07440 whole entry): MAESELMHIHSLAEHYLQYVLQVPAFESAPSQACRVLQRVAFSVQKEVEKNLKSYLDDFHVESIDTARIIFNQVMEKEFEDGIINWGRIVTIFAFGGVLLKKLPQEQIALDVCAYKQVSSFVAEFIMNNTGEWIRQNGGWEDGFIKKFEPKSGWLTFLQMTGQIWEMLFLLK

[15] = insulin promoter down-regulators in MIN6 cells, imaging, high-content screening, mouse beta cells (AID 1628); format: functional
[16] = molecular target: T3, Apoptotic protease-activating factor 1 (Homo sapiens, UniProt O14727); format: functional
T3 sequence (O14727 whole entry): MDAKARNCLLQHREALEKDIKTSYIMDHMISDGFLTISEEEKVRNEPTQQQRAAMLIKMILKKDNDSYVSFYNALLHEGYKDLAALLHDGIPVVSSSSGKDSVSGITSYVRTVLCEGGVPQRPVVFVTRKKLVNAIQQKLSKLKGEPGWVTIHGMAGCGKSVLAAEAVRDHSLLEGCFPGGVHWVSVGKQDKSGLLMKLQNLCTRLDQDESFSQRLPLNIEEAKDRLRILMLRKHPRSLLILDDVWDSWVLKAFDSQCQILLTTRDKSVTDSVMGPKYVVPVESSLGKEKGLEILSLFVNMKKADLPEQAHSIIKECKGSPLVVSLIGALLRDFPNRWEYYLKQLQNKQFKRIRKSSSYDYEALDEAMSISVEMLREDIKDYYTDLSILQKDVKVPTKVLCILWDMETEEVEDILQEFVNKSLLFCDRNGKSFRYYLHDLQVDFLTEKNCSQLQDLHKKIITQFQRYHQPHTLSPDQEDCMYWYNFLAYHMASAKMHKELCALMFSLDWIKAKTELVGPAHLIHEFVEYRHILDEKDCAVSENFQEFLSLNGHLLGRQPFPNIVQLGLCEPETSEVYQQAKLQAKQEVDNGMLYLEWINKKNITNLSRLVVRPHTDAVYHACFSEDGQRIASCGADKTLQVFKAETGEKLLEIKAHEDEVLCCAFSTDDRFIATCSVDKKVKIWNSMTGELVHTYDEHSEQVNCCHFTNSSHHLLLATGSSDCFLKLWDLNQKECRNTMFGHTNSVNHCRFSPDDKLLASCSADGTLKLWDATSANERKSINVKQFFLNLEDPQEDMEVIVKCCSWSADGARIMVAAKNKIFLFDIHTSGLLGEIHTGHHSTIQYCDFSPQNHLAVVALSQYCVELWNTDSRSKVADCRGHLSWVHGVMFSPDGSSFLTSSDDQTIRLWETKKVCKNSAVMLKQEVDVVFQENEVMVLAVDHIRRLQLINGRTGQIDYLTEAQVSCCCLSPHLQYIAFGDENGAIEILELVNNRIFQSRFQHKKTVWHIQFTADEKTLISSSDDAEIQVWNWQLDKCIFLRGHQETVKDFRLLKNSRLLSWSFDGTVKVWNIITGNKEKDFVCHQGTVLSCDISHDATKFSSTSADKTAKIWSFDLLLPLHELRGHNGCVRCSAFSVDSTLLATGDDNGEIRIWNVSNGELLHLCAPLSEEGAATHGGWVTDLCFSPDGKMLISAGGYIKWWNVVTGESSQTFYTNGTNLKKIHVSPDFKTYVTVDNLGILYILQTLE

[17] = cytotoxicity in MIN6 insulinoma cells, dose response, cytotoxicity control, cell-based, mouse insulinoma (AID 2122); format: functional;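 also: confirmatory high-throughput counterscreen run to flag cytotoxic compounds; mouse MIN-6 beta cells carrying an insulin promoter eGFP reporter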
[18] = molecular target: T4, Heat shock factor protein 1 (Mus musculus, UniProt P38532); assay: HSF1 potentiators in luciferase reporter cells, confirmation, cell-based, NIH3T3, luminescence, dose retest (AID 435004); format: functional;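 also: stress induced by proteasome inhibitor MG132 added 30 min after compound; luciferase reporter driven by HSF1 response element in NIH3T3 cells; actives raise luminescence as potentiators of the MG132 stress response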
T4 sequence (P38532 whole entry): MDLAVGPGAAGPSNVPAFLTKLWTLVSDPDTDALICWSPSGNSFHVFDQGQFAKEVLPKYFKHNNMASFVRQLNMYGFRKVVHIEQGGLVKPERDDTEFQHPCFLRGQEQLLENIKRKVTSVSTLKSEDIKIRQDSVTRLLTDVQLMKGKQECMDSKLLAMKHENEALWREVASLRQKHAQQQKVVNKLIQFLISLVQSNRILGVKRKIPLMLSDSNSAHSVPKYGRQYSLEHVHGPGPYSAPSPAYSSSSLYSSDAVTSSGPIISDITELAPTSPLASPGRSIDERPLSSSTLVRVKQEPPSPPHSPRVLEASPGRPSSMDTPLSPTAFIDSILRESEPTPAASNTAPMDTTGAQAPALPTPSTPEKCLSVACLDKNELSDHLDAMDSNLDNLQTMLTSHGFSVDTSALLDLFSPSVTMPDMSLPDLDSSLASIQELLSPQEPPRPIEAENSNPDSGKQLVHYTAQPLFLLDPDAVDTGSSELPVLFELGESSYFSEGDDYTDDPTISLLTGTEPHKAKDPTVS

[19] = molecular target: T5, Ubiquitin-conjugating enzyme E2 N (Homo sapiens, UniProt P61088); format: functional
T5 sequence (P61088 whole entry): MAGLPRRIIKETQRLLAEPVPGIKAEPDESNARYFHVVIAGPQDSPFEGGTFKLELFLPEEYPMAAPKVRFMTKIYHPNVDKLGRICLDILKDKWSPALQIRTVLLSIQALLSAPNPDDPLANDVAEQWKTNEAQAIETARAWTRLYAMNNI

[20] = molecular target: T5, Ubiquitin-conjugating enzyme E2 N; format: functional; remark: listed apart in the source
[21] = molecular target: T6, Estrogen receptor (Homo sapiens, UniProt P03372);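 also: potency for inhibiting coactivator peptide recruitment to the receptor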
T6 sequence (P03372 whole entry): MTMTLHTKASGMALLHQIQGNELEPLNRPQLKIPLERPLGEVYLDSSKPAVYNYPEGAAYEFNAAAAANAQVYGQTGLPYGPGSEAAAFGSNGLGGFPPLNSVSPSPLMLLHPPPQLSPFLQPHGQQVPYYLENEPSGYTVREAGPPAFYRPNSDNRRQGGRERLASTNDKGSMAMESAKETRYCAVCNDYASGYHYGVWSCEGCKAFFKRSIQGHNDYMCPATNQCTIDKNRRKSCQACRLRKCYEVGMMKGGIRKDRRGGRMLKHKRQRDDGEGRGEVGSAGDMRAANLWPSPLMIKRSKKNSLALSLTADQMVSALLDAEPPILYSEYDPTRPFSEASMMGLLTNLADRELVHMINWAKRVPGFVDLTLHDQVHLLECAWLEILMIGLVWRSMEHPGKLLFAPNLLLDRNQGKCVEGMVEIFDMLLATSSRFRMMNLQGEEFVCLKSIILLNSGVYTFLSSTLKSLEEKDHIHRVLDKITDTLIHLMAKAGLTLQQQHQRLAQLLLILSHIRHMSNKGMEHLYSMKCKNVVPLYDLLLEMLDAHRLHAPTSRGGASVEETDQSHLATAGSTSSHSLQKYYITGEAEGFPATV

[22] = molecular target: T7, Carboxy-terminal domain RNA polymerase II polypeptide A small phosphatase 1 (Homo sapiens, UniProt Q9GZU7); assay: inhibitors of CTDSP1, concentration-response testing, biochemical assay, absorbance-based, actives from ultra-high-throughput screening (AID 540297); format: functional
T7 sequence (Q9GZU7 whole entry): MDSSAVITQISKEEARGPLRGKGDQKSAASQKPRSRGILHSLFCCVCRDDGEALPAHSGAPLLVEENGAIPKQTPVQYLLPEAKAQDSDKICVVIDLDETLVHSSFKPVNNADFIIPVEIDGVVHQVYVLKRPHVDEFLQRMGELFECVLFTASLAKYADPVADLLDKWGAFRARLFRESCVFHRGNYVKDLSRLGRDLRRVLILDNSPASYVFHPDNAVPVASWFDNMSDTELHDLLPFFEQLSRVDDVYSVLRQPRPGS

[23] = molecular target: T8, Mannose-6-phosphate isomerase (Homo sapiens, UniProt P34949); assay: inhibitors of human PMI, primary screen, biochemical, fluorescence intensity, coupled assay (AID 1209)
T8 sequence (P34949 whole entry): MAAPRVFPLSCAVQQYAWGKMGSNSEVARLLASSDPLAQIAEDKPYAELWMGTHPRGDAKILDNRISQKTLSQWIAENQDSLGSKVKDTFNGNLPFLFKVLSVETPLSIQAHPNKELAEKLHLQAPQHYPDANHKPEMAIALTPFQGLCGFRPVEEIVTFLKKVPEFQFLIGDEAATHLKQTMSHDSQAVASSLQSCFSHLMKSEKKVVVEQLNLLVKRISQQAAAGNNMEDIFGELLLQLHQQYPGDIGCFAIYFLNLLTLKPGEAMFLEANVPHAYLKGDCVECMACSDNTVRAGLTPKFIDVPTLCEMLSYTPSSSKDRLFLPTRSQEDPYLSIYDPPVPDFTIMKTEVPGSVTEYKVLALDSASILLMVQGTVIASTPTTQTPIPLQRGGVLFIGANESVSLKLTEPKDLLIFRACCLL

[24] = A cytotoxicity screen of small molecule inhibitors of the PhoP region in Salmonella typhi identified in the primary screen. [Related pubchem assays: 1850, 1864, 1985 ]; format: functional
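For AC50 in this document: cells exposed to compound for roughly 70 hours or longer before luminescence read.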

Chain of Neurotensin receptor type 1 (P30989 whole entry): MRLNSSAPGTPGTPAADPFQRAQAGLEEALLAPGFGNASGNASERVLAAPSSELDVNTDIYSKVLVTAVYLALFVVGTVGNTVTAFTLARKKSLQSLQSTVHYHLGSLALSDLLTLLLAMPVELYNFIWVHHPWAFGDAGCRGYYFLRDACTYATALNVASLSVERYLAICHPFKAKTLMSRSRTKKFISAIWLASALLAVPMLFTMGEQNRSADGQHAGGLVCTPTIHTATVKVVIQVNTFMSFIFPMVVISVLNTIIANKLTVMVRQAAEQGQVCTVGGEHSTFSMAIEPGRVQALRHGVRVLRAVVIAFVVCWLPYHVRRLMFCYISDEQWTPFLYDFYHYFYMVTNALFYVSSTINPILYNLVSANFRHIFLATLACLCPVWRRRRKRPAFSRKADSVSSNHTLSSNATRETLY
Chain of NS3 (A3EZJ3 whole entry): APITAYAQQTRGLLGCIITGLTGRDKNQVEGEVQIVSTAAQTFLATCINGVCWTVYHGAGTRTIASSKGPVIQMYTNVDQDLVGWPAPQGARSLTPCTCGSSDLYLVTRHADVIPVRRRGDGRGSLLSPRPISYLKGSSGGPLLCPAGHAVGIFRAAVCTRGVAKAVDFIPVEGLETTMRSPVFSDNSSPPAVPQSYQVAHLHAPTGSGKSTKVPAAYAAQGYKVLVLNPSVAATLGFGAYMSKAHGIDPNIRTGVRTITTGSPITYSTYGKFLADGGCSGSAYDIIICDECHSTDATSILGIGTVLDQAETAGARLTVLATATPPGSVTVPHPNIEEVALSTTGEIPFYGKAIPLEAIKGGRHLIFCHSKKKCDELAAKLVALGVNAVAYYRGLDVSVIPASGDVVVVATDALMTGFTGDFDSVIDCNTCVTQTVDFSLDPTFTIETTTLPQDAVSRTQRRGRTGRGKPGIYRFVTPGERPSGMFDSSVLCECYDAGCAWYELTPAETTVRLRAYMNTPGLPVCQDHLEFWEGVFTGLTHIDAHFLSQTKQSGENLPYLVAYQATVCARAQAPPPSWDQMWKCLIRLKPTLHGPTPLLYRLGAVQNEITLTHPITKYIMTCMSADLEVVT

## C=CCn1c(SCC(=O)OC)nc2sc3c(c2c1=O)CCN(C)C3
[1]
  IC50: 71 µM (inactive)

## O=C1c2ccccc2C(=O)N1CCCCN(C(=O)c1cc2ccccc2oc1=O)c1ccc(Cl)cc1
[2]
  IC50: 21.9 µM (active)

## CCCCCn1c(N2CCC(Cc3ccccc3)CC2)nc2c1c(=O)[nH]c(=O)n2C
[3]
  EC50: 11.9 µM (active)
[4]
  EC50: 971 nM (active)
[5]
  EC50: > 60 µM (not active)
[6]
  EC50: 12.7 µM (active)
[7]
  EC50: 9.08 µM (active)

## COC(=O)c1sc2nc(N3CCCCC3)c3c(c2c1N)CCCC3
[8]
  AC50: 2.95 µM (active)
[2]
  IC50: > 50 µM (active)
[9]
  CC50: > 50 µM (active)

## C/C(=N/Nc1cc(-c2ccccc2)nc(-c2ccccc2)n1)c1ccc(O)cc1
[10]
  EC50: 1.52 µM (active)
[11]
  EC50: 1.56 µM (active)
[12]
  CC50: 18.2 µM (active)
[7]
  EC50: 15.9 µM (active)

## CC(C)C(C)(C#N)NC(=O)CSc1nc2scc(-c3ccco3)c2c(=O)n1-c1ccccc1 (stereo not given)
[13]
  IC50: 11.3 µM (not active)

## CCCCCCOc1ccc(/C(C)=N/NC2=NCCN2)cc1[N+](=O)[O-]
[14]
  IC50: > 20 µM (inactive)
[15]
  IC50: 2.34 µM (active)
[8]
  AC50: 4.9 µM (active)
[16]
  IC50: 70.5 µM (active)
[4]
  EC50: 2150 nM (active)
[5]
  EC50: > 30 µM (not active)
[17]
  IC50: 2.11 µM (active)
[18]
  EC50: > 260 µM (inactive)
[19]
  IC50: 12.1 µM (active)
[20]
  IC50: 12.6 µM (active)
[7]
  EC50: 18.9 µM (active)

## O=[N+]([O-])c1ccccc1S(=O)(=O)Nc1cccc(-c2ccc(N3CCOCC3)nn2)c1
[2]
  IC50: 16.8 µM (active)
[9]
  CC50: > 50 µM (active)

## COc1cc(C(=O)OCC(=O)Nc2c(F)c(F)c(F)c(F)c2F)cc(OC)c1OC
[21]
  IC50: > 50 µM (not active)

## Cc1ccc(CCCOC(=O)C[N+]2(C)CCCC2)cc1
[22]
  IC50: 11 µM (active)
[23]
  IC50: > 50 µM (not active)

## CCN=C(S)Nc1cc(-c2ccc(Cl)cc2)[nH]n1
[24]
  EC50: > 50 µM (active)
[23]
  IC50: > 50 µM (not active)

## CC[n+]1c(C)n(-c2ccccc2)c2ccc(NC(C)=O)cc21
[22]
  IC50: 5.18 µM (active)
[23]
  IC50: > 50 µM (not active)
